Where “and” joins values, the source holds several entries; their conditions need not be identical. Equal values may be shown once. Read-outs that look alike come from different tables or passages of the source.

The nature of data set [1]: in situ rat intestinal perfusion of ethiofos: circulating perfusate and portal blood. It counts as in vivo, rat (male Sprague-Dawley). Conditions: for plasma concentration change on addition of Na2 EDTA: 1.0 mM Na2 EDTA vs without; for levels in portal blood samples, change on addition of Na2 EDTA: 1 mM Na2 EDTA vs without, ethiofos / total WR-1065; for level in portal blood: perfusion of [14C]ethiofos in pH-adjusted water, intact ethiofos / total WR-1065. As for the experimental part: Male Sprague-Dawley rats were maintained on a regular diet of rat chow prior to dosing and fasted 16 h before the experiment. Water was available ad libitum.
Rats weighing between 250 g and 325 g were chosen and anesthetized with 50.0 mg/kg sodium pentobarbital ip. The cannulation of the intestine was performed as previously described.
The proximal cannula was inserted through the stomach wall past the pyloric sphincter for experiments which included the bile flow. Experiments which excluded the bile flow were cannulated approximately 3 cm distal to the pyloric spinchter. Five microcuries of (^3 H)PEG 4000 was included in the perfusate to monitor water flux. For some experiments, 1 mCi of (^14 C)ethiofos was added to the reservoir.
Concommitant sampling of blood was accomplished by insertion of a catheter in the portal vein via the ileocecal vein. […] Rectal temperature was monitored in early experiments to assure maintenance of body temperature in this system.
(§1) Ethiofos was separated on a Bioanalytical Systems […] Phase II C18 ODS analytical column with an Uptight guard column packed with Whatman Pellicular C18 37-53 mm material. Amperometric detection was conducted with a Bioanalytical Systems LC 4B amperometric detector with a Hg/Au transducer ell. Detector signal was output to a Waters Associates Model 840 data system.
(§2) A […] portion of blood was immediately treated with […] of chilled (0°-4° C.) 1.0M HC10 containing 1 g/L EDTA. The samples were vortexed and centrifuged at 15,600×g for 45 sec. […] Samples were immediately frozen at -78° C. in a dry ice/2-propanol bath and transferred to a freezer maintained at -78° C.
(§3) The samples were prepared for HPLC analysis by adding 200 ml of buffer (pH 10). Samples were injected onto HPLC Unit A and amperometrically detected with an Hg/Au electrode at +0.25 V. The assay method has been previously described by Swynnerton, McGovern, Nino and Mangold: J. Radiat. Oncol.
(§4) J. Radiat. Oncol. […] Samples were injected on HPLC Unit B and amperometrically detected at +0.15 V.

Data set [2] can be described thus: intraduodenal administration of ethiofos to Rhesus monkeys, plasma levels. Conditions: Rhesus monkey; for plasma levels on coadministration of ethiofos with EDTA: ethiofos / free and total WR-1065. It counts as in vivo. As to the method: An ethiofos solution was administered via rapid infusion through an infant nasogastric tube instilled in the duodenum of Rhesus monkeys. X-rays were taken to ensure proper location of the tube prior to drug administration. […] Prior to administration of dosing solution, 10 ml of 1 mM EDTA was predosed into the duodenum over 1 hr using a calibrated infusion pump.
as §1, §2, §3, §4

For data set [3] the following is noted: cited from earlier work.
For data set [4] the following is noted: in vivo; cited from earlier work.
Data set [5] relates to mice. Conditions: intravenous; cited from earlier work.
The next data set deals with dogs. Conditions: cited from earlier work.
In a further data set the test system is Rhesus monkeys. Conditions: cited from earlier work.
The next data set relates to circulating calcium. Conditions: human clinical trials; cited from earlier work.
For data set [6] the following is noted: in vivo; cited from earlier work. The source holds these as a separate data set.
For data set [7] the following is noted: stomach acid; cited from earlier work.
Data set [8] has as its system mice. Particulars: cited from earlier work.

Take `O=C(O)CN(CCN(CC(=O)O)CC(=O)O)CC(=O)O` [EDTA, ethylenediaminetetraacetic acid]: in data set [1] (rat in situ), the “protection of ethiofos degradation in the lumen by EDTA” value is “some protection” and the “rate of absorption of ethiofos with EDTA” value is reported as “increase the rate of absorption”. In [1] (rat intestinal perfusion of ethiofos), the “EDTA concentration at which increased absorption reaches a maximum” value is listed as “approximately 1 mM”. The “EDTA concentration giving highest ethiofos levels in portal blood” value in data set [1] (rat, 90 minutes in situ intestinal perfusion) came to 1.5 mM. In [2] (intraduodenal, awake), the “absorption of ethiofos with EDTA” value is given as “enhanced the absorption”.

Turning to `NCCCNCCS` [WR-1065], in data set [1] (rat), the “plasma concentration change on addition of Na2 EDTA” value is “significant increase” and the “levels in portal blood samples, change on addition of Na2 EDTA” value is on record as “significant increases”. Moreover, the “metabolite formed in the intestinal lumen” value in [1] (rat, from perfusate mass balance) was “major metabolite”. Moreover, the “level in portal blood” value in data set [1] (rat, no EDTA) is recorded as “comparatively high levels”. The “plasma levels on coadministration of ethiofos with EDTA” value in data set [2] (intraduodenal, awake) is “substantial increase”. Moreover, the “halflife compared with ethiofos” value in [3] (rhesus monkey, in vivo, iv) is given as “much long halflife”. Moreover, the “toxicity of the free thiol relative to the parent drug ethiofos” value in data set [4] is listed as “much more toxic”.

For the molecule `NCCCNCCSP(=O)(O)O` [ethiofos, S-2-(3-aminopropylamino)ethylphosphorothioic acid], the “disappearance of parent compound from the perfusate” value in [1] (rat in situ, [14C]ethiofos in pH-adjusted water, first 30 minutes, no EDTA) was “fairly rapid rate”. The “radioactivity accounted for by ethiofos and measured metabolite (mass balance of perfusate)” value in data set [1] (rat intestinal perfusate, no EDTA) was “approximately 85%”. Also, in [1] (rat intestinal perfusate, no EDTA, may be disulfides), the “radioactivity not accounted for by WR-1065 and ethiofos” value worked out at 15%. Moreover, the “plasma concentration change on addition of Na2 EDTA” value in [1] (rat) was “significant increase”. Further, the “levels in portal blood samples, change on addition of Na2 EDTA” value in [1] (rat) was “significant increases”. Besides, in [1] (rat, 90 min perfusion, pH-adjusted water, no EDTA), the “labelled ethiofos / radioactivity remaining in the circulating perfusate” value is 90.5±1.7% and 90.5±1.74%. Also, the “radioactivity remaining in the circulating perfusate” value in data set [1] (rat, 90 min perfusion, with 1.0 mM Na2 EDTA) is listed as 85.8±1.09%. Further, in [1] (rat, EDTA enhancement, 90 minutes in situ perfusion), the “factor of increase of appearance of ethiofos in rat portal blood” value is given as 20. Moreover, the “level in portal blood” value in data set [1] (rat, no EDTA) was “transient and low levels”. In data set [2] (intraduodenal, awake), the “plasma levels on coadministration of ethiofos with EDTA” value was “detectable levels”. Also, the AUC in data set [2] (in vivo, intraduodenal 150 mg/kg, in the presence of EDTA (47:1 ethiofos to EDTA), read-out: AUC (plasma concentration-time curve)) came out at 0.55 µM·h. In addition, the “protection against X-rays and gamma radiation” value in the data set on mice [5] is “has been shown to protect”; in the data set on dogs (intravenous), “has been shown to protect”; in the data set with Rhesus monkeys (Rhesus monkeys, intravenous), “has been shown to protect”. Moreover, the “protection (oral dosing)” value in the data set on dogs (oral) is “failed to protect”; in the data set on Rhesus monkeys (monkeys, oral) it was “failed to protect”. The “loss of circulating calcium” value in the data set on circulating calcium is recorded as “loss of circulating calcium”. The “slowing of stomach motility and gastric emptying” value in data set [6] was “can slow stomach motility and gastric emptying”. For the same molecule, the “hydrolysis in the acidic environment of the stomach” value in data set [7] is recorded as “can be hydrolyzed”. Further, the entries for the “approximate LD50” value with mice [8] (intraperitoneal) and in the data set with mice [8] (oral) were around 950 mg/kg and around 1500 mg/kg, respectively. In addition, the plasma halflife result in data set [3] (iv, rhesus monkeys 150 mg/kg) was “approximately 18 minutes”. Besides, the “ethiofos or its metabolites excreted in the urine within 120 hours” value in data set [3] (rhesus monkeys, iv 150 mg/kg, most within 24 hours) is given as 80%.

Source of the values: patent US5167947A, “Enhancement of absorption of radioprotective drugs” (Southwest Research Institute, priority 1989, dated 1992).
